Experimental findings from PMC4264192, “Synthesis and Biological Evaluation of 2-Thioxopyrimidin-4(1H)-one Derivatives as Potential Non-Nucleoside HIV-1 Reverse Transcriptase Inhibitors” (International Journal of Molecular Sciences, 2014) are described below.

By melting point is commonly meant the temperature, or range, at which the solid turns liquid. The EC50 is the concentration needed to bring the measured effect to its halfway point.

Like-named read-outs stand apart in the source and are kept apart here.

One data set relates to HIV-1. As to the kind of experiment: Inhibition of HIV-1 replication in MT-4 cells (HIV-1 antigen ELISA or MTT). The class given is cell-based, human immunodeficiency virus type 1. As to conditions: for activity against HIV-1 replication (in words) / Selectivity index (SI), CC50/IC50: MT-4 cells; for activity against HIV-1 replication (in words): less than 30% reduction of HIV expression considered without biological activity; for IC50: Human immunodeficiency virus 1, MT4, 144 h, read-out: IC50, 50% inhibitory concentration (anti-HIV-1 activity); for EC50: Human immunodeficiency virus 1, MT4, read-out: EC50 against wild-type HIV-1; for Selectivity index (SI), CC50/IC50: ratio CC50/IC50. From the text:
Compounds mediating less than 30% reduction of HIV expression were considered without biological activity.
On the technique in general: ELISA stands for enzyme-linked immunosorbent assay.

A short description of data set [1]: Cytotoxic effect in uninfected MT-4 cultures. The class given is cell-based. The following applies: human, uninfected MT-4 cells; read-out: CC50, 50% cytotoxic concentration.
The mark [2] stands for this setting: HIV-1 in MT-4 cells, six days, 0.005 MOI.

As for `C=CCc1c(Cc2ccccc2)nc(SCCOCOC)[nH]c1=O` [Compound 2f, 5-Allyl-6-benzyl-2-(2-(methoxymethoxy)ethylthio)pyrimidin-4(3H)-one], the melting point lay within 188 to 190 °C.

`C=CCc1c(Cc2ccccc2)nc(SC2CCCCC2)[nH]c1=O` [Compound 6, 5-Allyl 6-benzyl-2-(cyclohexylthio)pyrimidin-4(3H)-one]: the melting point fell in the range of 138 to 140 °C.

`C=CCc1c(Cc2ccccc2)nc(SCCO)[nH]c1=O` [Compound 2b, 2-(2-Hydroxyethylthio)-5-allyl-6-benzylpyrimidin-4(3H)-one]: the melting point is 164 to 166 °C.

Turning to `C=CCc1c(Cc2ccccc2)nc(SC2CCOC2=O)[nH]c1=O` (stereo not shown) [Compound 2k, 5-Allyl-6-benzyl-2-(tetrahydro-2-oxofuran-3-ylthio)pyrimidin-4(3H)-one], the melting point lay within 153 to 155 °C. For the same molecule, the “activity against HIV-1 replication (in words)” value (from here on “activity”) in the data set with HIV-1 was “inactive”.

On to `C=CCc1c(Cc2ccccc2)nc(SCCCCCC)[nH]c1=O` [Compound 2d, 5-Allyl-6-benzyl-2-(hexylthio)pyrimidin-4(3H)-one], for which the melting point lay in the range of 153 to 155 °C. In addition, the IC50 with HIV-1 was 7 µM. In addition, in data set [1], the CC50 at 6 days came to 35 µM.

`C=CCc1c(Cc2ccccc2)nc(SCCCO)[nH]c1=O` [Compound 11c, 2-(3-Hydroxypropylthio)-5-allyl-6-benzylpyrimidin-4(3H)-one] had a melting point of 123 to 125 °C. Besides, the IC50 in the data set on HIV-1 (setting [2]) stood at 0.32 µM. In the data set with HIV-1, the concentration giving a half-maximal response (EC50) amounted to 0.32 µM and the “Selectivity index (SI), CC50/IC50” value is on record as >312. Further, in data set [1], the CC50 at 6 days was > 100 µM.

For the molecule `Cc1cn([C@H]2C[C@H](N=[N+]=[N-])[C@@H](CO)O2)c(=O)[nH]c1=O` [AZT, azidothymidine, reference compound], in the data set with HIV-1 (setting [2]), the IC50 came out at 0.04 µM. For the same molecule, in the data set on HIV-1, the “Selectivity index (SI), CC50/IC50” value is 1,300. Moreover, the CC50 at 6 days in data set [1] was found to be 52 µM.

Molecule `C=CCc1c(Cc2ccccc2)nc(SCC(C)C)[nH]c1=O` [Compound 2h, 5-Allyl-6-benzyl-2-(isobutylthio)pyrimidin-4(3H)-one] came in with a melting point of 134 to 136 °C. The IC50 with HIV-1 (setting [2]) is 1 µM. In the data set on HIV-1, the “Selectivity index (SI), CC50/IC50” value was >100. Moreover, the CC50 at 6 days in data set [1] is > 100 µM.

`O=c1[nH]c([S+]([O-])C2CCCCC2)nc(Cc2ccccc2)c1CC1CO1` (stereo not shown) [Compound 7, 6-Benzyl-2-(cyclohexylsulfinyl)-5-((oxiran-2-yl)methyl)pyrimidin-4(3H)-one] displayed a melting point of 190 to 192 °C.

`C=CCc1c(Cc2ccccc2)n2c(nc1=O)SCC2OCC` (stereo not shown) [Compound 10, 6-Allyl-5-benzyl-3-ethoxy-2,3-dihydrothiazolo[3,2-a]pyrimidin-7-one] displayed a melting point of 162 to 164 °C.

Turning to `C=CCc1c(Cc2ccccc2)nc(SCCCBr)[nH]c1=O` [Compound 2c, 2-(3-Bromopropylthio)-5-allyl-6-benzylpyrimidin-4(3H)-one], the melting point lay in the range of 138 to 140 °C. Moreover, in the data set with HIV-1, the “activity” value was “inactive”.

As to `C=CCc1c(Cc2ccccc2)nc(SC)[nH]c1=O` [Compound 2a, 5-Allyl 6-(benzyl)-2-(methylthio)pyrimidin-4(3H)-one], the melting point lay in the range of 214 to 216 °C. Moreover, in the data set on HIV-1 (setting [2]), the IC50 was determined as 26.8 µM. Besides, in the data set on HIV-1, the “Selectivity index (SI), CC50/IC50” value is reported as >3. Moreover, the CC50 at 6 days in data set [1] was > 100 µM.

`C=CCc1c(Cc2ccccc2)nc(SCSC)[nH]c1=O` [Compound 11a, 2-((Methylthio)methylthio)-5-allyl-6-benzylpyrimidin-4(3H)-one]: the melting point lay in the range of 218 to 220 °C. In addition, the IC50 in the data set with HIV-1 (setting [2]) was 3.16 µM. Further, the “Selectivity index (SI), CC50/IC50” value in the data set with HIV-1 is recorded as >31. In data set [1], the CC50 at 6 days was > 100 µM.

Molecule `C=CCc1c(Cc2ccccc2)nc(SCC(OCC)OCC)[nH]c1=O` [Compound 9, 5-Allyl 6-benzyl-2-(2,2-diethoxyethylthio)pyrimidin-4(3H)-one] registered a melting point of 156 to 158 °C. Also, in the data set on HIV-1, the “activity” value was “inactive”.

Turning to `C=CCc1c(Cc2ccccc2)nc(SCC(=O)NC)[nH]c1=O` [Compound 4, 2-(5-Allyl-4-benzyl-1,6-dihydro-6-oxopyrimidin-2-ylthio)-N-methylacetamide], the “activity” value in the data set on HIV-1 was “inactive”.

Regarding `C=CCc1c(Cc2ccccc2)nc(SCC(=O)OCC)[nH]c1=O` [Compound 3b, 5-Allyl-6-benzyl-2-(ethylacetatethio)pyrimidin-4(3H)-one], the melting point is 118 to 120 °C. Further, in the data set with HIV-1, the “activity” value was “inactive”.

Regarding `C=CCc1c(Cc2ccccc2)nc(SC2CCCC2)[nH]c1=O` [Compound 2j, 5-Allyl 6-benzyl-2-(cyclopentylthio)pyrimidin-4(3H)-one], the IC50 in the data set with HIV-1 (setting [2]) was 2.6 µM. In addition, the concentration for a half-maximal effect (EC50) with HIV-1 stood at 2.6 µM. In data set [1], the CC50 at 6 days is > 100 µM.

Take `C=CCc1c(Cc2ccccc2)nc(SCOCC)[nH]c1=O` [Compound 11b, 5-Allyl-6-benzyl-2-(ethoxymethylthio)pyrimidin-4(3H)-one]: the melting point lay within 142 to 144 °C.

Regarding `CCOCn1c(Cc2ccccc2)c(C(C)C)c(=O)[nH]c1=O` [MKC-442, 6-benzyl-1-(ethoxymethyl)-5-isopropylpyrimidine-2,4-dione, reference compound], the IC50 in the data set on HIV-1 (setting [2]) was 0.005 µM. Besides, the “Selectivity index (SI), CC50/IC50” value in the data set on HIV-1 is on record as 28,000. In addition, the CC50 at 6 days in data set [1] amounted to 141 µM.

On to `C=CCc1c(Cc2ccccc2)nc(SC2CCCCC2)[nH]c1=S` [Compound 8, 5-Allyl-6-benzyl-2-(cyclohexylthio)pyrimidine-4(3H)-thione], for which the melting point was in the range of 143 to 145 °C. The IC50 in the data set on HIV-1 (setting [2]) was 3.9 µM. The “Selectivity index (SI), CC50/IC50” value with HIV-1 is reported as >25. Moreover, the CC50 at 6 days in data set [1] is > 100 µM.

Molecule `C=CCSc1nc(Cc2ccccc2)c(CC=C)c(=O)[nH]1` [Compound 2e, 5-Allyl 6-benzyl-2-(allylthio)pyrimidin-4(3H)-one] showed a melting point of 114 to 116 °C. Also, in the data set with HIV-1, the IC50 came to 2.5 µM and the EC50 is 2.5 µM. In addition, the CC50 at 6 days in data set [1] is 25 µM.

In turn, `C=CCc1c(Cc2ccccc2)nc(SCC(CC)CC)[nH]c1=O` [Compound 2i, 5-Allyl-6-benzyl-2-(2-ethylbutylthio)pyrimidin-4(3H)-one] displayed a melting point of 141 to 143 °C.

`C=CCc1c(Cc2ccccc2)nc(SCCOCOCCBr)[nH]c1=O` [Compound 2g, 5-Allyl-6-benzyl-2-(2-((2-bromoethoxy)methoxy)ethylthio)pyrimidin-4(3H)-one] displayed a melting point of 192 to 194 °C.

`C=CCc1c(Cc2ccccc2)nc(SCC(=O)OC)[nH]c1=O` [Compound 3a, 5-Allyl-6-benzyl-2-(methylacetatethio)pyrimidin-4(3H)-one] returned a melting point of 117 to 119 °C. The IC50 in the data set with HIV-1 (setting [2]) is 35 µM. Further, the “Selectivity index (SI), CC50/IC50” value in the data set with HIV-1 is listed as >2. Further, the CC50 at 6 days in data set [1] was > 100 µM.
